According to ChEMBL document CHEMBL4376816, “Discovery of the Oral Leukotriene C4 Synthase Inhibitor (1S,2S)-2-({5-[(5-Chloro-2,4-difluorophenyl)(2-fluoro-2-methylpropyl)amino]-3-methoxypyrazin-2-yl}carbonyl)cyclopropanecarboxylic Acid (AZD9898) as a New Treatment for Asthma” (J Med Chem, 2019):
Activity calls are given as the source filed them. The rule behind the calls is not given here.

Columns and labels:
[1] = Volume of distribution at steady state in Beagle dog at 1 mg/kg, iv infusion or 2 mg/kg, po via gavage after 48 hrs; type: ADME, organism-based, Canis lupus familiaris; settings: in vivo, read-out: Vdss
[2] = target: T1, Leukotriene C4 synthase (Homo sapiens) (UniProt Q16873); assay: Inhibition of LTC4S in healthy human whole blood assessed as inhibition of calcium ionophore A23187 stimulated cysteinyl leukotrienes production preincuabted for 30 mins followed by calcium ionophore stimulation and measured after 10 mins by LC-MS analysis; type: tissue-based
T1 sequence (whole entry): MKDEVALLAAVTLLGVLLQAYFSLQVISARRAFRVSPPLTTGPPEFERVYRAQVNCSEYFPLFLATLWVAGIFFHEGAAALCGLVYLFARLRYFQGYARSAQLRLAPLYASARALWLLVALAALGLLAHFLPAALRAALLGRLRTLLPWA

Vd [1]: 1 L/kg
inhibition [2]: Active
SMILES: COc1nc(N(CC(C)(C)F)c2cc(Cl)c(F)cc2F)cnc1C(=O)[C@H]1C[C@@H]1C(=O)O [AZD-9898]
